According to publication PMC12136240 (Cell chemical biology, 2024):
pKd: −log10 of the molar value.

Key:
[1] = target: His6-CRBN/DDB1 (Homo sapiens, UniProt Q96SW2); assay: TR-FRET ligand displacement assay; assay type: binding; conditions: for fold difference in KD between POM and POM-cN: monofunctional compounds, POM binds more tightly
[2] = target: GSPT1-GFP in HEK293T cells (Homo sapiens, UniProt P15170); assay: Off-target degradation of GSPT1 by flow cytometry; assay type: cell-based; conditions: 24 h
[3] = test system: zinc-finger (ZF) degrons fused to GFP in U2OS cells; assay: Off-target degradation of ZF degrons by flow cytometry; assay type: cell-based; conditions: 32 nM to 20 μM, 24 h
[4] = test system: His6-CRBN/DDB1 in the presence of GST-BRD4(BD1); assay: TR-FRET ternary complex / cooperativity assay with 1 μM BD1; assay type: binding; conditions: Alpha = KD,CRBN[binary]/KD,CRBN[ternary]
[5] = test system: His6-CRBN/DDB1 in the presence of GST-BRD4(BD2); assay: TR-FRET ternary complex / cooperativity assay with 1 μM BD2; assay type: binding; conditions: Alpha = KD,CRBN[binary]/KD,CRBN[ternary]
[6] = target: BRD4(BD1)-GFP in HEK293T cells (Homo sapiens, UniProt O60885+Q96SW2); assay: TR-FRET quantification of BRD4; conditions: for DC50: read-out: DC50(BD1), HEK293T BRD4(BD1)-GFP reporter cells
[7] = target: His6-CRBN/DDB1–GST-BRD4(BD1) ternary complex (Homo sapiens, UniProt O60885+Q96SW2); assay: TR-FRET off-rate measurement of the ternary complex, BD1; assay type: binding; conditions: BRD4 dissociation triggered by excess JQ1
[8] = target: BRD4(BD2)-GFP in HEK293T cells (Homo sapiens, UniProt O60885+Q96SW2); assay: TR-FRET quantification of BRD4; conditions: for DC50: read-out: DC50(BD2), HEK293T BRD4(BD2)-GFP reporter cells, 4 h
[9] = target: BRD4 BD2 bromodomain; conditions: read-out: KD for BD2; cited from earlier work
[10] = target: BRD4 BD1 bromodomain; conditions: read-out: KD for BD1; cited from earlier work
[11] = target: BRD4 in HEK293T cells (Homo sapiens, UniProt O60885); assay: BRD4 degradation assay, western blot; assay type: cell-based; conditions: 4 h, 100 nM–10 μM dose-response
[12] = target: endogenous BRD4 in MDA-MB-231 cells (Homo sapiens, UniProt O60885); assay type: cell-based; conditions: 5 h (Fig. 3b)

## Nc1cccc2c1C(=O)N(C1CC(=O)NC1=O)C2=O (stereo not drawn) [POM-cN]
[1]
  fold difference in KD between POM and POM-cN: ~ 500 fold

## Cc1sc2c(c1C)C(c1ccc(Cl)cc1)=N[C@@H](CC(=O)Nc1ccc(OCCOCCOCCOCCNc3cccc4c3C(=O)N(C3CCC(=O)NC3=O)C4=O)cc1)c1nnc(C)n1-2 (stereo partly drawn) [ARV-825]
[2]
  Dmax, off-target degradation of GSPT1: ≤ 1%
[3]
  degradation of C2H2 zinc finger targets including IKZF3 and ZFP91, in words: fast and rapid degradation

## Cc1sc2c(c1C)C(c1ccc(Cl)cc1)=N[C@@H](CC(=O)NCCCCCCCCNC(=O)COc1cccc3c1C(=O)N(C1CCC(=O)NC1=O)C3=O)c1nnc(C)n1-2 (stereo partly drawn) [dBET6]
[2]
  Dmax, off-target degradation of GSPT1: ≤ 9%
[3]
  Dmax, off-target degradation of ZF degrons: ≈ 6%
[4]
  cooperativity with BRD4(BD1), in words: negative cooperativity
[5]
  cooperativity with BRD4(BD2), in words: negative cooperativity

## Cc1sc2c(c1C)C(c1ccc(Cl)cc1)=N[C@@H](CC(=O)NCCCCCCCCC(=O)N[C@@H](Cc1ccc(O)cc1)C(=O)N[C@H]1CCC(=O)NC1=O)c1nnc(C)n1-2 [JQ1-YcQ]
[6]; HEK293T BRD4(BD1)-GFP cells
  time to reach maximum level of degradation (Dmax), BRD4(BD1): 1.5 h
[6]; HEK293T reporter cells, 4 h, more potent on BD1
  fold difference in DC50 between BD1 and BD2: 5–10 fold
[6]; 4 h
  DC50: 103 nM
[7]
  stability of the ternary complex with BRD4(BD1), in words: most stable and long-lived complexes
[8]; HEK293T BRD4(BD2)-GFP cells
  time to reach maximum level of degradation (Dmax), BRD4(BD2): 3 h
[8]
  DC50: 513 nM

## Cc1sc2c(c1C)C(c1ccc(Cl)cc1)=N[C@@H](CC(=O)OC(C)(C)C)c1nnc(C)n1-2 [JQ1]
[9]
  pKd: 7.05
[10]
  pKd: 7.30

## Cc1sc2c(c1C)C(c1ccc(Cl)cc1)=N[C@@H](CC(=O)NCCCCCCCCC(=O)N[C@@H](Cc1ccccc1)C(=O)N[C@H]1CC(=O)NC1=O)c1nnc(C)n1-2 [JQ1-FcN]
[1]; read-out: KD against His6-CRBN/DDB1 (binary), competition binding with Thal-FITC
  pKd: > 7.00
[11]
  BRD4 degradation, western blot, in words: efficient degradation of BRD4 at a concentration of 100 nM

## Nc1cccc2c1C(=O)N(C1CCC(=O)NC1=O)C2=O (stereo not drawn) [POM, pomalidomide]
[1]
  fold difference in KD between POM and POM-cN: ~ 500 fold

## Cc1sc2c(c1C)C(c1ccc(Cl)cc1)=N[C@@H](CC(=O)NCCCCCCCCC(=O)N[C@@H](C)C(=O)N[C@H]1CCC(=O)NC1=O)c1nnc(C)n1-2 [JQ1-AcQ]
[12]
  endogenous BRD4 degradation potency, in words: one of the most potent BRD4 degraders
[6]; 4 h
  DC50: 41 nM
[8]
  DC50: 78 nM
